The values below come from paper PMC12169475 (ACS Medicinal Chemistry Letters, 2025).

One data set concerns HepG2 cells. As to conditions: previously reported, ref Van der Walt et al.; cited from earlier work.
The test system of data set [1] is HaCat cells. The following applies: previously reported, ref Van der Walt et al.; cited from earlier work. The procedure:
The toxicity of the analogues was assessed against HaCat cells, which serve as a relevant model for the intended topical application of these peptides in burn wound care.

Another data set has as its system E. cloacae NICD 16103. It counts as cell-based, Enterobacter cloacae. The following applies: then MIC 20 h 37°C; for MIC after trypsin treatment: trypsin 0.15 U/mL pH 7.4 (picture: 1 mM), 1 h 37°C, inactivated 60°C 20 min.
The test system of the next data set is mammalian erythrocytes. The following applies: previously reported, ref Van der Walt et al.; cited from earlier work.
Data set [2] relates to HaCat cells. The experiment in a line: In vitro cytotoxicity screening against epidermal HaCat cells (MTT). The following applies: 24 h exposure in total (21 h + 3 h MTT), OD570, three independent experiments in duplicate (n = 6).
The subject of a further data set is E. cloacae ATCC 700323. As for the experimental part:
(§1) Antibacterial activity against a panel of standard laboratory strains and clinical isolates.
(§2) Antimicrobial activity was evaluated against a panel of Gram-negative bacteria maintained by H3D, University of Cape Town, consisting of six laboratory reference strains and two clinical isolates. Briefly, bacterial colonies from an LB agar plate were picked and cultured in cation-adjusted Mueller Hinton broth (MHB) at 37°C with 180 rpm shaking, overnight. Cultures were […]
(§3) back diluted to reach a starting optical density at 600 nm (OD600) of 0.1 and then diluted 100- […]
(§4) media down polypropylene 96-well plates. Inoculum was added at a 1:1 ratio resulting in a […]
(§5) (Suppl. Table S2). Plates were incubated at 37°C for 20 h and the OD600 determined. Minimum inhibition concentrations (MICs) were determined from a minimum of three biological repeats. […]
(§6) the background absorbance.
(§7) Caution! All bacterial work was conducted using appropriate biosafety level 2 (BSL-2) practices.
(§8) Clinical isolates and reference strains were handled in a biosafety cabinet with proper PPE to prevent exposure and contamination.

Data set [3] has as its system K. pneumoniae ATCC BAA-1705. As for the experimental part:
as §1, §2, §3, §4, §5, §6, §7, §8

The subject of data set [4] is A. baumannii NICD 15283 (C). As for the experimental part:
as §1, §2, §3, §4, §5, §6, §7, §8

A further data set concerns E. coli ATCC 700928. As for the experimental part:
as §1, §2, §3, §4, §5, §6, §7, §8

The next data set relates to P. aeruginosa PAO1. The procedure:
as §1, §2, §3, §4, §5, §6, §7, §8

Data set [5] has as its system E. cloacae NICD 16103 (C). As for the experimental part: as §1, §2, §3, §4, §5, §6, §7, §8
The test system of a further data set is A. baumannii ATCC 19606. As for the experimental part:
as §1, §2, §3, §4, §5, §6, §7, §8

The subject of another data set is E. coli ATCC 25922. As for the experimental part:
as §1, §2, §3, §4, §5, §6, §7

Like-named read-outs stand apart in the source and are kept apart here. Ends that are not written are not given here.

For orientation: LC50 means the concentration lethal to half of the exposed cells or organisms. The HC50 is the concentration that lyses half of the red blood cells. Turning to GKVWDWIKSTAKKLWN-NH2 [Opis16a], in the data set on HepG2 cells, the LC50 was 118 ± 8 µg/mL. Besides, in the data set on HaCat cells [1], the “HaCat toxicity LC50 + SD” value is 311 ± 12 µg/mL. Moreover, the “MIC in FCS (20%)” value against E. cloacae NICD 16103 (peptide preincubated in 20% FCS 1 h at 37°C) is 64 µg/mL. Moreover, the “MIC after trypsin treatment” value in the data set with E. cloacae NICD 16103 was more than 32 µg/mL. Moreover, the HC50 with mammalian erythrocytes was more than 256 µg/mL.
GKVWKWIKSTARRLWN-NH2 [Opis16aCterKR]: the “HaCat toxicity LC50 + SD” value in the data set with HaCat cells [2] was 181 ± 8 µg/mL. The “MIC after trypsin treatment” value in the data set on E. cloacae NICD 16103 is more than 32 µg/mL. Besides, the “Modal MIC” value in the data set on E. cloacae ATCC 700323 (E. cloacae ATCC 700323, cation-adjusted MHB, ~5 x 10^5 CFU/mL, 37°C 20 h, OD600, n = 6) is 8 (8×) μg/mL; in [3] (K. pneumoniae ATCC BAA-1705, cation-adjusted MHB, ~5 x 10^5 CFU/mL, 37°C 20 h, OD600, n = 6), 8 µg/mL; in data set [4] (A. baumannii NICD 15283 clinical isolate, cation-adjusted MHB, ~5 x 10^5 CFU/mL, 37°C 20 h, OD600, n = 6), 8 µg/mL; with E. coli ATCC 700928 (E. coli ATCC 700928, cation-adjusted MHB, ~5 x 10^5 CFU/mL, 37°C 20 h, OD600, n = 6), 4 µg/mL; in the data set with P. aeruginosa PAO1 (P. aeruginosa PAO1, cation-adjusted MHB, ~5 x 10^5 CFU/mL, 37°C 20 h, OD600, n = 6), 4 µg/mL; in [5] (E. cloacae NICD 16103 clinical isolate, cation-adjusted MHB, ~5 x 10^5 CFU/mL, 37°C 20 h, OD600, n = 6), 4 (4×) μg/mL. Also, the “Modal MIC” value is 4 µg/mL in the data set with A. baumannii ATCC 19606 (A. baumannii ATCC 19606, cation-adjusted MHB, ~5 x 10^5 CFU/mL, 37°C 20 h, OD600, n = 6) and 8 (8×) μg/mL in the data set with E. coli ATCC 25922 (E. coli ATCC 25922, cation-adjusted MHB, ~5 x 10^5 CFU/mL, 37°C 20 h, OD600, triplicate experiments in duplicate (n = 6)). Besides, the “Selectivity index (HaCat LC50 / MIC)” value turned out to be 22.6 in the data set with E. cloacae ATCC 700323 (E. cloacae ATCC 700323 over HaCat cells); 22.6 in data set [3] (K. pneumoniae ATCC BAA-1705 over HaCat cells); 22.6 in data set [4] (A. baumannii NICD 15283 clinical isolate over HaCat cells); 45.2 in the data set on E. coli ATCC 700928 (E. coli ATCC 700928 over HaCat cells); 45.2 in the data set with P. aeruginosa PAO1 (P. aeruginosa PAO1 over HaCat cells); 45.2 in [5] (E. cloacae NICD 16103 clinical isolate over HaCat cells). The “Selectivity index (HaCat LC50 / MIC)” value in the data set with A. baumannii ATCC 19606 (A. baumannii ATCC 19606 over HaCat cells) amounted to 45.2; with E. coli ATCC 25922 (E. coli ATCC 25922 over HaCat cells) it was 22.6.
